Experiments:
Format in all cases: cell-based
Bacteria Pool [1] = test: Challenge test of shampoo with bacteria pool; set-up: key: 1: 0 (No Growth); 2: 1-4; 3: 5-10; 4: 11-25; 26-50; 6: 51-100; 7: 101-200; 8: 201-300; 9: (TNTC) too numerous to count; 10: (TNTC) solid m; conditions: 1000 ppm of each compound; for Bacterial Growth Rating 1 wk: streaked 1 week after inoculation; for Bacterial Growth Rating 2 wk: streaked 2 weeks after inoculation; for Bacterial Growth Rating 3 wk: streaked 3 weeks after inoculation; for Bacterial Growth Rating 1 day: streaked 1 day after inoculation; for Bacterial Growth Rating 2 day: streaked 2 days after inoculation
Description: (§1) The samples were tested by the challenge test described below. In this challenge test, samples were stored at room temperatures, inoculated at zero days and streaked at 0 days, 1 day, 2 days, 1 week, 2 weeks and 3 weeks. […] Twenty-five grams of sample are weighed out in one-ounce glass jars. […] Biocide was dissolved into solution before use and different concentrations are prepared by adding the appropriate amount of the biocide solution to the samples. […] A negative control is included using a sample without any biocide. 4. The bacteria pool inoculum is made fresh on the day of inoculation by using equal volumes of the 24 hour cultures of the ATCC bacteria grown individually in nutrient broth at 30° C. […] 5. Before inoculation, samples are streaked on TSA (tryptic soy agar) plates with sterile cotton swabs. The plates are incubated at 30° C. for 48 hours and then read using a bacterial colony counter and rated for microbial growth according to the Growth Rating Chart. […] Samples are inoculated with 0.05 mL (for 25 g samples) of the […]. […] Immediately after inoculation, samples are streaked with sterile cotton swabs on TSA plates. The plates are then incubated at 30° C. for 48 hours. The samples are incubated at room temperature. 8. Samples are streaked again at 1 day, 2 days, 1 week, 2 weeks and 3 weeks. […] All plates are incubated 48 hours at 30° C. then read and rated according to the Growth Rating Chart. […] Samples are kept at room temperature.

Bacteria Pool [2] = test: Challenge test of hand lotion with bacteria pool; set-up: key to Bacterial Growth Rating 1 day / Bacterial Growth Rating 1 wk / Bacterial Growth Rating 3 wk: 1: 0 (No Growth); 2: 1-4; 3: 5-10; 4: 11-25; 26-50; 6: 51-100; 7: 101-200; 8: 201-300; 9: (TNTC) too numerous to count; 10: (TNTC) solid m; conditions: 1000 ppm of each compound; for Bacterial Growth Rating 1 wk: streaked 1 week after inoculation; for Bacterial Growth Rating 2 wk: streaked 2 weeks after inoculation; for Bacterial Growth Rating 3 wk: streaked 3 weeks after inoculation; for Bacterial Growth Rating 1 day: streaked 1 day after inoculation; for Bacterial Growth Rating 2 day: streaked 2 days after inoculation
Description: as §1

[3] = tested on: Aspergillus niger ATCC #16404; test: Challenge test of hand lotion with A. niger and S. cerevisiae (A. niger rating); conditions: 1000 ppm of each compound, A. niger (first figure of cell); for Bacterial Growth Rating 1 wk: 1 week; for Bacterial Growth Rating 2 wk: 2 weeks; for Bacterial Growth Rating 3 wk: 3 weeks; for Bacterial Growth Rating 2 day: 2 days
Description: (§2) The samples were tested by the challenge test described below. In this challenge test, samples were stored at room temperatures, inoculated at zero days and streaked at 0 days, 1 day, 2 days, 1 week, 2 weeks and 3 weeks. […] Twenty-five grams of sample are weighed out in one-ounce glass jars. […] Biocide is dissolved into solution before use and different concentrations are prepared by adding the appropriate amount of the biocide solution to the samples. […] A negative control is included using a sample without any biocide. […] Before inoculation, samples are streaked on MYA (malt yeast agar) plates with sterile cotton swabs. The plates are incubated at 30° C. for 48 hours and then read using a bacterial colony counter and rated for microbial growth according to the Growth Rating Chart. […] 5. The inoculum is prepared by adding 9.9 mL sterile 0.85% saline solution to a pure culture slant grown on MYA. A cotton-tipped swab is used to gently rub the surface of the slant to free the cells. […] The yeast and fungus used are: [table] […] Samples are inoculated with 0.05 mL (for 25 g samples) of the An suspension and 0.05 mL of the Sc suspension. 7. Immediately after inoculation, samples are streaked with sterile cotton swabs on MYA plates. The plates are then incubated at 30° C. for 48 hours. The samples are incubated at room temperature. 8. Samples are streaked again at 1 day, 2 days, 1 week, 2 weeks and 3 weeks. 9. All plates are incubated 48 hours at 30° C. then read and rated according to the Growth Rating Chart. Samples are kept at room temperature.

[4] = tested on: Saccharomyces cerevisiae #4105; test: Challenge test of hand lotion with A. niger and S. cerevisiae (S. cerevisiae rating); conditions: 1000 ppm of each compound, S. cerevisiae (second figure of cell); for Bacterial Growth Rating 1 wk: 1 week; for Bacterial Growth Rating 2 wk: 2 weeks; for Bacterial Growth Rating 3 wk: 3 weeks; for Bacterial Growth Rating 2 day: 2 days
Description: as §2

COc1cc(C=CC(=O)O)ccc1O [ferulic acid, 4-hydroxy-3-methoxycinnamic acid]
Bacterial Growth Rating 1 wk (Bacteria Pool [1]): 9
Bacterial Growth Rating 2 wk (Bacteria Pool [1]): 9
Bacterial Growth Rating 3 wk (Bacteria Pool [1]): 9
Bacterial Growth Rating 1 day (Bacteria Pool [1]): 9
Bacterial Growth Rating 2 day (Bacteria Pool [1]): 9
Bacterial Growth Rating 1 wk (Bacteria Pool [2]): 9
Bacterial Growth Rating 2 wk (Bacteria Pool [2]): 6 (51-100)
Bacterial Growth Rating 3 wk (Bacteria Pool [2]): 9
Bacterial Growth Rating 1 day (Bacteria Pool [2]): 7 (101-200)
Bacterial Growth Rating 2 day (Bacteria Pool [2]): 6 (51-100)
Bacterial Growth Rating 1 wk [3]: 3/3 (5-10)
Bacterial Growth Rating 2 wk [3]: 4 (11-25)
Bacterial Growth Rating 3 wk [3]: 3 (5-10)
Bacterial Growth Rating 1 day [3]: 4 (11-25)
Bacterial Growth Rating 2 day [3]: 4 (11-25)
Bacterial Growth Rating 1 wk [4]: 3/3 (5-10)
Bacterial Growth Rating 2 wk [4]: 3 (5-10)
Bacterial Growth Rating 3 wk [4]: 4 (11-25)
Bacterial Growth Rating 1 day [4]: 6 (51-100)
Bacterial Growth Rating 2 day [4]: 6 (51-100)

CCc1ccc(O)c(OC)c1 [ethylguaiacol, 4-ethyl-2-methoxyphenol]
Bacterial Growth Rating 1 wk (Bacteria Pool [1]): 9
Bacterial Growth Rating 2 wk (Bacteria Pool [1]): 9
Bacterial Growth Rating 3 wk (Bacteria Pool [1]): 9
Bacterial Growth Rating 1 day (Bacteria Pool [1]): 9
Bacterial Growth Rating 2 day (Bacteria Pool [1]): 9
Bacterial Growth Rating 1 wk (Bacteria Pool [2]): 5 (26-50)
Bacterial Growth Rating 2 wk (Bacteria Pool [2]): 4 (11-25)
Bacterial Growth Rating 3 wk (Bacteria Pool [2]): 1 (0 (No Growth))
Bacterial Growth Rating 1 day (Bacteria Pool [2]): 9
Bacterial Growth Rating 2 day (Bacteria Pool [2]): 6 (51-100)
Bacterial Growth Rating 1 wk [3]: 3 (5-10)
Bacterial Growth Rating 2 wk [3]: 2/2 (1-4)
Bacterial Growth Rating 3 wk [3]: 3/3 (5-10)
Bacterial Growth Rating 1 day [3]: 4/4 (11-25)
Bacterial Growth Rating 2 day [3]: 3 (5-10)
Bacterial Growth Rating 1 wk [4]: 4 (11-25)
Bacterial Growth Rating 2 wk [4]: 2/2 (1-4)
Bacterial Growth Rating 3 wk [4]: 3/3 (5-10)
Bacterial Growth Rating 1 day [4]: 4/4 (11-25)
Bacterial Growth Rating 2 day [4]: 4 (11-25)

C=Cc1ccc(O)c(OC)c1 [vinylguaiacol, 4-hydroxy-3-methoxystyrene]
Bacterial Growth Rating 1 wk (Bacteria Pool [1]): 8 (201-300)
Bacterial Growth Rating 2 wk (Bacteria Pool [1]): 9
Bacterial Growth Rating 3 wk (Bacteria Pool [1]): 9
Bacterial Growth Rating 1 day (Bacteria Pool [1]): 9
Bacterial Growth Rating 2 day (Bacteria Pool [1]): 9
Bacterial Growth Rating 1 wk (Bacteria Pool [2]): 4 (11-25)
Bacterial Growth Rating 2 wk (Bacteria Pool [2]): 3 (5-10)
Bacterial Growth Rating 3 wk (Bacteria Pool [2]): 1 (0 (No Growth))
Bacterial Growth Rating 1 day (Bacteria Pool [2]): 4 (11-25)
Bacterial Growth Rating 2 day (Bacteria Pool [2]): 3 (5-10)
Bacterial Growth Rating 1 wk [3]: 1 (0 (No Growth))
Bacterial Growth Rating 2 wk [3]: 1 (0 (No Growth))
Bacterial Growth Rating 3 wk [3]: 1 (0 (No Growth))
Bacterial Growth Rating 1 day [3]: 3 (5-10)
Bacterial Growth Rating 2 day [3]: 1 (0 (No Growth))
Bacterial Growth Rating 1 wk [4]: 2 (1-4)
Bacterial Growth Rating 2 wk [4]: 1 (0 (No Growth))
Bacterial Growth Rating 3 wk [4]: 1 (0 (No Growth))
Bacterial Growth Rating 1 day [4]: 2 (1-4)
Bacterial Growth Rating 2 day [4]: 3 (5-10)

— patent US20030176508A1, “Ferulic acid ethyl-guaiacol or vinyl-guaiacol as preservative combination in cosmetic compositions” (priority 2000, published 2003)
